Source: patent publication US10899795B2, “Modified epitopes for boosting CD4+ T-cell responses” (Katholieke Universiteit Leuven, priority 2012, dated 2021)
Entries after “also recorded” stand apart in the source; their conditions may differ.

Columns and labels:
[1] = test system: p21-35 (SEQ ID NO:3)-specific CD4+ T cell clone; assay: Proliferation of Der p2 p21-35-specific CD4+ T cell clone with peptide-loaded antigen-presenting cells (3H-thymidine incorporation); type: cell-based, BALB/c mice; settings: peptide 0.1 μM loaded on T cell-depleted mitomycin C-treated splenocytes; compared with p21-35 wildtype sequence (SEQ ID NO:3); 48 h + 18 h 3H-thymidine
[2] = test system: NPM-ALK tumor cells (R80 NPM-ALK cells, H-2b-restricted); assay: Growth of NPM-ALK tumor in mice preimmunized with peptide on alum; type: in vivo, C57BL/6 mice; settings: 50 μg peptide on alum, 4 times at 10-day intervals, before s.c. inoculation of 2×10^6 tumor cells; difference at day 20 p<0.008 (Mann-Whitney U test)
[3] = test system: ALK-specific CD4+ T cells; assay: Activation of ALK-specific CD4+ T cells
[4] = test system: B cells expressing the BO2C11 BCR; assay: FACS for BO2C11 BCR on circulating, splenic and bone marrow B cells of immunized mice; type: in vivo
Protocol: A mouse strain was created which expresses the BO2C11 molecule as a B cell receptor. […] Mice were then bled and tested for the presence of antibodies recognizing the peptide of SEQ ID NO:10 and the BO2C11 antibody, as assess by direct binding ELISA. […] Furthermore, the presence of the BO2C11 BCR on circulating, splenic and bone marrow B cells was evaluated by FACS using an anti-human Fc-gamma antibody.

[5] = Direct binding ELISA of antibodies in blood of immunized BO2C11 BCR mice; type: in vivo; settings: mice immunized with 50 μg peptide on alum on 4 occasions at 10-day intervals
Source text: (§1) A mouse strain was created which expresses the BO2C11 molecule as a B cell receptor. […] Mice were then bled and tested for the presence of antibodies recognizing the peptide of SEQ ID NO:10 and the BO2C11 antibody, as assess by direct binding ELISA.

BO2C11 antibody = assay: as above; type: in vivo; settings: mice immunized with 50 μg peptide on alum on 4 occasions at 10-day intervals
Source text: as §1

CD4+ T cells = assay: Proliferation of CD4+ T cells stimulated with ALK peptide-loaded dendritic cells (tritiated thymidine incorporation); type: cell-based, C57BL/6 mice; settings: four cycles of stimulation with 20 μg peptide; restimulation with 1 μM or 10 μM peptide of SEQ ID NO:14; compared with stimulation by SEQ ID NO:14
[6] = test system: macrophages presenting Ag85b derived epitopes; type: cell-based, C57BL/6 mice
G121 CD4+ T cell clone = assay: FACS detection of CFSE-labeled G121 CD4+ T cell clone in immunized mice; type: in vivo, BALB/c mice; settings: one day after i.v. injection of 200,000 cells per mouse in immunized mice
G121 TCR = assay: FACS detection of serum antibodies to G121 TCR in immunized mice; type: in vivo, BALB/c mice; settings: G121 cells incubated with serum dilution, then FITC-labeled anti-mouse Fcgamma antibody

For “AHGSEPCIIHRGKPF (Der p2 amino acids 21-35 with mutation c21A) [SEQ ID NO:4, p21-35 peptide with cysteine in P(-4) substituted by alanine]”, the “reduction of the proliferative response of the specific T cell clone” value [1] was 70%.

In the case of “YCTQDPDVINTA (ALK-epitope) [SEQ ID NO:5]”, the “tumor growth in preimmunized mice versus control group not preimmunized” value [2] was “very much reduced” and the “activation of ALK-specific (class II-restricted) CD4+ T cells” value [3] was “boost the activation; also recorded: increased activation properties”.

With “CAVY YCAVPDPDA FDI (CAVYYCAVPDPDAFDI; amino acids 111-125 of VH of human anti-factor VIII antibody BO2C11 preceded by cyteine) [SEQ ID NO:11]” the “B cells expressing the transgenic BCR in circulation, spleen or bone marrow (FACS, anti-human Fc-gamma antibody)” value [4] was “no B cells expressing the transgenic BCR”, the “antibodies to the peptide of SEQ ID 10 (direct binding ELISA)” value [5] was “High concentrations of antibodies” and the “antibodies to the BO2C11 antibody (direct binding ELISA)” value (BO2C11 antibody) was “High concentrations of antibodies”.

In the case of “CGG WTGPGAGPR (CGGWTGPGAGPR; amino acids 1544-1555 of ALK protein preceded by cysteine) [SEQ ID NO:15, ALK peptide with a single cysteine added at position 1544]”, the “proliferation rate of CD4+ T cells (incorporation of tritiated thymidine)” value (CD4+ T cells) was “significantly increased”.

With “YWGAQLNAM [SEQ ID NO:6, reference compound]” the “macrophage lysis (51Cr release)” value [6] was “not”.

In the case of “CQTA VYFCASSER TGG (CQTAVYFCASSERTGG; amino acids 103-117 of VH of anti-Der p2 CD4+ T-cell clone G121 preceded by cysteine) [SEQ ID NO:13]”, the “residual CFSE-labeled G121 cells in peripheral blood or spleen (FACS)” value (G121 CD4+ T cell clone) was “no residual G121 cells” and the “antibodies to G121 TCR in serum of immunized mice (FACS)” value (G121 TCR) was “contains antibodies to G121 TCR”.

With CSWE YWGAQLNAM [SEQ ID NO:7] the “macrophage lysis (51Cr release)” value [6] was “significant degree of macrophage lysis”.
